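Step 1: Grow cells in 96-well plates. Step 2: Expose to compound for 48 hours at 5 concentrations. Step 3: Interpolate endpoints linearly; if unreached, use highest concentration. GI50: concentration for 50% inhibition of growth.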 Active and inactive are the calls of the source. Rule as the data show it: active = GI50 up to about 1.1 µM and inactive = higher.
Experiments:
Experiment in all cases: growth of human tumour cells (NCI), 48 h
A498 = system: A498
A549 = system: A549
EKVX = system: EKVX
HCC 2998 = system: HCC 2998
HL-60 = system: HL-60
HOP-92 = system: HOP-92
M14 = system: M14
MOLT-4 = system: MOLT-4
Malme-3M = system: Malme-3M
NCI-H226 = system: NCI-H226
OVCAR-3 = system: OVCAR-3
OVCAR-4 = system: OVCAR-4
SK-MEL-28 = system: SK-MEL-28
TK-10 = system: TK-10
UACC-257 = system: UACC-257
UO-31 = system: UO-31
DU-145 = system: DU-145
MDA-MB-231 = system: MDA-MB-231
PC-3 = system: PC-3

Measured: GI50

COc1ccc(-c2c(C3=NCCCN3)nnn2-c2ccccc2)cc1
inactive: A498 > 100 µM | A549 > 100 µM | EKVX > 100 µM | HCC 2998 > 100 µM | HL-60 > 100 µM | HOP-92 86.5 µM | M14 > 100 µM | MOLT-4 > 100 µM | Malme-3M > 100 µM | NCI-H226 > 100 µM | OVCAR-3 > 100 µM | OVCAR-4 > 100 µM | SK-MEL-28 > 100 µM | TK-10 > 100 µM | UACC-257 > 100 µM | UO-31 > 100 µM

Cc1c(C)c2ccc(O)cc2[nH]c1=O
inactive: A498 > 100 µM | A549 > 100 µM | DU-145 > 100 µM | EKVX > 100 µM | HCC 2998 > 100 µM | HOP-92 > 100 µM | M14 > 100 µM | MDA-MB-231 > 100 µM | MOLT-4 > 100 µM | NCI-H226 > 100 µM | OVCAR-3 > 100 µM | OVCAR-4 > 100 µM | PC-3 > 100 µM | SK-MEL-28 > 100 µM | UACC-257 > 100 µM | UO-31 > 100 µM

CN1CCc2c1nc(-c1ccccc1)c1c2N(C)CC1
inactive: A498 26.1 µM | A549 > 100 µM | EKVX > 100 µM | HCC 2998 99.3 µM | HL-60 31 µM | HOP-92 29.7 µM | M14 44.8 µM | MOLT-4 38.1 µM | Malme-3M 91.4 µM | OVCAR-3 21.4 µM | OVCAR-4 57 µM | TK-10 > 100 µM | UACC-257 93.5 µM | UO-31 14.7 µM

CCCCN(CCCC)C(=C(C(Cl)=C(Cl)Cl)[N+](=O)[O-])N(CCCC)CCCC
inactive: A498 > 100 µM | A549 > 100 µM | DU-145 > 100 µM | EKVX 67.5 µM | HOP-92 90.8 µM | M14 > 100 µM | MDA-MB-231 65.2 µM | Malme-3M > 100 µM | NCI-H226 > 100 µM | OVCAR-3 37.2 µM | OVCAR-4 > 100 µM | PC-3 57 µM | SK-MEL-28 > 100 µM | TK-10 > 100 µM | UACC-257 32.1 µM | UO-31 > 100 µM

c1cc2sc1CSCCSCCSC2
inactive: A549 > 100 µM | DU-145 > 100 µM | EKVX > 100 µM | HCC 2998 > 100 µM | HL-60 > 100 µM | HOP-92 > 100 µM | M14 > 100 µM | MDA-MB-231 > 100 µM | MOLT-4 > 100 µM | OVCAR-3 > 100 µM | OVCAR-4 > 100 µM | PC-3 > 100 µM | SK-MEL-28 > 100 µM | TK-10 > 100 µM | UACC-257 > 100 µM | UO-31 > 100 µM

C=C(C)CCC(=O)[C@](C)(O)[C@H]1[C@H](O)C[C@@]2(C)[C@@H]3CCc4c(cc(OC5OC(CO)C(O)C(O)C5O)c(O)c4C)C3(C)C(=O)C[C@]12C (some centres undefined)
inactive: A498 > 100 µM | A549 > 100 µM | DU-145 > 100 µM | EKVX > 100 µM | HCC 2998 > 100 µM | HOP-92 > 100 µM | M14 > 100 µM | MDA-MB-231 > 100 µM | MOLT-4 > 100 µM | Malme-3M > 100 µM | NCI-H226 > 100 µM | OVCAR-3 > 100 µM | OVCAR-4 > 100 µM | PC-3 > 100 µM | SK-MEL-28 > 100 µM | TK-10 > 100 µM | UACC-257 > 100 µM | UO-31 > 100 µM

Nn1c(S)nnc1N/N=C1/C(=O)Nc2c(Cl)cc(Cl)cc21
inactive: A498 65.5 µM | A549 > 100 µM | EKVX > 100 µM | HCC 2998 58.2 µM | HL-60 69.2 µM | HOP-92 73.1 µM | M14 > 100 µM | MOLT-4 37.2 µM | Malme-3M > 100 µM | NCI-H226 52.1 µM | OVCAR-3 > 100 µM | OVCAR-4 > 100 µM | TK-10 > 100 µM | UACC-257 > 100 µM | UO-31 47.6 µM

COc1cccc(C(C#N)NNC(=O)c2c(Cl)c(Cl)c(Cl)c(Cl)c2-c2nc3cc(C(=O)c4ccccc4)ccc3[nH]2)c1O (centres undefined)
inactive: A498 2.05 µM | A549 4.06 µM | DU-145 6.4 µM | EKVX 14.3 µM | HL-60 3.59 µM | HOP-92 9.2 µM | M14 3.66 µM | MDA-MB-231 4.15 µM | MOLT-4 2.78 µM | NCI-H226 3 µM | OVCAR-3 2.2 µM | OVCAR-4 3.09 µM | PC-3 3.62 µM | SK-MEL-28 9.73 µM | TK-10 7.71 µM | UACC-257 9.02 µM | UO-31 6.84 µM

CCCCCCCCCCCCCCCCCCCCCCC(=O)N[C@H]1CCc2cc(OC)c(OC)c(OC)c2-c2ccc(SC)c(=O)cc21
inactive: A498 11.5 µM | A549 26.4 µM | EKVX 29.1 µM | HCC 2998 25.5 µM | HL-60 17.1 µM | HOP-92 34.4 µM | M14 27.5 µM | MOLT-4 27 µM | Malme-3M 51.5 µM | NCI-H226 2.52 µM | OVCAR-3 24.2 µM | OVCAR-4 > 100 µM | SK-MEL-28 84.5 µM | TK-10 40.1 µM | UACC-257 39.2 µM | UO-31 48 µM

— ChEMBL document CHEMBL1201862, “PubChem BioAssay data set” (2004)
